Data: publication PMC12547551, “Lanostane–Meroterpene Conjugates with Unusual Aryl Ether Linkage and a Lanostane Dimer from Artificially Cultivated Fruiting Bodies of Ganoderma cf. hochiminhense” (ACS Omega, 2025)
Converted amounts (≈) assume the structure as drawn.

Experiments:
[1] = tested on: NCI-H187 (small-cell lung cancer) cells; experiment: Cytotoxicity against NCI-H187 cells, resazurin fluorescent method; assay type: cell-based; conditions: Homo sapiens
[2] = tested on: MCF-7 (breast cancer) cells; experiment: Cytotoxicity against MCF-7 cells, resazurin fluorescent method; assay type: cell-based; conditions: Homo sapiens, MCF7
Vero cells = experiment: Cytotoxicity to Vero cells, green fluorescent protein detection method; assay type: cell-based, African green monkey; conditions: Chlorocebus sabaeus; nonmalignant Vero cells
[3] = tested on: Mycobacterium tuberculosis H37Ra; experiment: Antimycobacterial activity, green fluorescent protein detection method; assay type: cell-based; conditions: M. tuberculosis H37Ra, standard drugs
Plasmodium falciparum K1 = experiment: Antiplasmodial assay, microculture radioisotope technique; assay type: cell-based; conditions: P. falciparum K1, standard drug

Compound: CC(C)=CCC/C(C)=C/CC/C(=C/Cc1cc(OC(C)(C)[C@@H](O)CC[C@@H](C)[C@H]2CC[C@@]3(C)C4=CC[C@H]5C(C)(C)[C@@H](O)CC[C@]5(C)C4=CC[C@]23C)ccc1O)C(=O)O [ganohochimin D (4), Ganohochimin D]
- IC50 [1]: 16 µM
- IC50 [2]: > 64 µM
- IC50 (Vero cells): 28 µM

Compound: CC(C)=CCC/C(=C/Cc1cc(O)ccc1OC(C)(C)[C@@H](O)CC[C@@H](C)[C@H]1CC[C@@]2(C)C3=CC[C@H]4C(C)(C)C(=O)CC[C@]4(C)C3=CC[C@]12C)C(=O)O [ganohochimin E (5), Ganohochimin E]
- IC50 [1]: 21 µM
- IC50 [2]: > 70 µM
- IC50 (Vero cells): 13 µM

Compound: COc1cccc2c1C(=O)c1c(O)c3c(c(O)c1C2=O)C[C@@](O)(C(=O)CO)C[C@@H]3O[C@H]1C[C@H](N)[C@H](O)[C@H](C)O1 [doxorubicin, reference compound]
- IC50 [1]: 0.15 µM
- IC50 [2]: 11 µM

Compound: CO[C@H]1/C=C/O[C@@]2(C)Oc3c(C)c(O)c4c(O)c(c(/C=N/N5CCN(C)CC5)c(O)c4c3C2=O)NC(=O)/C(C)=C\C=C\[C@H](C)[C@H](O)[C@@H](C)[C@@H](O)[C@@H](C)[C@H](OC(C)=O)[C@@H]1C [Rifampicin]
- MIC [3]: 0.025 µg/mL (≈ 0.0304 µM)

Compound: CC(C)=CCC/C(=C/Cc1cc(OC(C)(C)[C@@H](O)CC[C@@H](C)[C@H]2CC[C@@]3(C)C4=CC[C@H]5C(C)(C)C(=O)CC[C@]5(C)C4=CC[C@]23C)ccc1O)C(=O)O [ganohochimin G (7), Ganohochimin G]
- IC50 [1]: 21 µM
- IC50 [2]: > 70 µM
- IC50 (Vero cells): 14 µM

Compound: CC(C)=CCC/C(C)=C/CC/C(=C/Cc1cc(OC(C)(C)[C@@H](O)CC[C@@H](C)[C@H]2CC[C@@]3(C)C4=CC[C@H]5C(C)(C)C(=O)CC[C@]5(C)C4=CC[C@]23C)ccc1O)C(=O)O [ganohochimin C (3), Ganohochimin C]
- IC50 [1]: 21 µM
- IC50 [2]: > 64 µM
- IC50 (Vero cells): 30 µM

Compound: CCN(CC)CCCC(C)Nc1ccnc2cc(Cl)ccc12 (centres unmarked) [chloroquine]
- IC50 (Plasmodium falciparum K1): 0.58 µM

Compound: C[C@H]1[C@@H](O)O[C@@H]2O[C@@]3(C)CC[C@H]4[C@H](C)CC[C@@H]1[C@@]24OO3 [Dihydroartemisinin]
- IC50 (Plasmodium falciparum K1): 0.0014 µM

Compound: CC(C)=CCC/C(=C/Cc1cc(O)ccc1OC(C)(C)[C@@H](O)CC[C@@H](C)[C@H]1CC[C@@]2(C)C3=CC[C@H]4C(C)(C)[C@@H](O)CC[C@]4(C)C3=CC[C@]12C)C(=O)O [ganohochimin F (6), Ganohochimin F]
- IC50 [1]: 7.7 µM
- IC50 [2]: > 70 µM
- IC50 (Vero cells): 6.3 µM

Compound: NNC(=O)c1ccncc1 [isoniazid]
- MIC [3]: 0.375 µg/mL (≈ 2.73 µM)

Compound: CC(C)=CCC/C(=C/Cc1cc(O)ccc1O)C(=O)O [fornicin F (10), Fornicin F]
- IC50 [1]: 134 µM
- IC50 [2]: > 181 µM
- IC50 (Vero cells): > 181 µM

Compound: Cc1c2ccncc2c(C)c2c1[nH]c1ccccc12 [ellipticine, reference compound]
- IC50 [1]: 7.6 µM
- IC50 (Vero cells): 6 µM

Compound: CCC(=O)CC[C@@]1(C)OC[C@]23[C@@H](O)C(=O)C4=C(C(=O)C[C@@H]([C@@]5(C)CO5)[C@]4(C)CCC(=O)O[C@@H](CC[C@@H](C)[C@H]4CC[C@@]5(C)C6=CC[C@H]7C(C)(C)C(=O)CC[C@]7(C)C6=CC[C@]45C)C(C)(C)O)[C@]2(C)CC[C@@H]31 [ganohochimate A (9), Ganohochimate A]
- IC50 [1]: > 52 µM
- IC50 [2]: > 52 µM
- IC50 (Vero cells): 52 µM

Compound: CC(C)=CCCC(C)=CCCC(=CCc1cc(O)ccc1OC(C)(C)C(O)CCC(C)C1CCC2(C)C3=CCC4C(C)(C)C(=O)CCC4(C)C3=CCC12C)C(=O)O (centres unmarked) [ganohochimin A (1), Ganohochimin A]
- IC50 [1]: 19 µM
- IC50 [2]: > 64 µM
- IC50 (Vero cells): 17 µM

Compound: CC(C)=CCC/C(=C/Cc1cc(OC(C)(C)[C@@H](O)CC[C@@H](C)[C@H]2CC[C@@]3(C)C4=CC[C@H]5C(C)(C)[C@@H](O)CC[C@]5(C)C4=CC[C@]23C)ccc1O)C(=O)O [ganohochimin H (8), Ganohochimin H]
- IC50 [1]: 18 µM
- IC50 [2]: > 70 µM
- IC50 (Vero cells): 24 µM

Compound: CC(C)=CCC/C(C)=C/CC/C(=C/Cc1cc(O)ccc1OC(C)(C)[C@@H](O)CC[C@@H](C)[C@H]1CC[C@@]2(C)C3=CC[C@H]4C(C)(C)[C@@H](O)CC[C@]4(C)C3=CC[C@]12C)C(=O)O [ganohochimin B (2), Ganohochimin B]
- IC50 [1]: 33 µM
- IC50 [2]: > 64 µM
- IC50 (Vero cells): 28 µM
